According to paper PMC4080980, “The pharmacokinetics of anthocyanins and their metabolites in humans” (British Journal of Pharmacology, 2014):
Marks after values point to notes of the source that are not given here.

Experiments:
[1] = Serum pharmacokinetics after 500 mg oral bolus of 13C5-C3G (HPLC-ESI-MS/MS, non-compartmental analysis); type: in vivo, humans; conditions: for Cmax: healthy men, mean ± SEM of participants in whom detected; for AUC(0-t) / AUC0-48: trapezoidal rule; for AUC(0-t): read-out: AUC0-48
Description: (§1) A detailed description of the clinical design was previously published ([Czank et al., 2013]). Briefly, a single 500 mg oral bolus dose of isotopically labelled C3G (^13C5-C3G) was fed to eight healthy male participants (body mass index, 18.5–30.5 kg·m^–2; aged 18–45 years) after an overnight fast (>8 h). Participants provided blood (baseline, 0.5, 1, 2, 4, 6, 24, 48 h), urine (individual voids between 0 and 6 h, total voids between 6–24 and 24–48 h), breath (baseline, 0.5, 1, 2, 4, 6, 24, 48 h) and faecal samples (all voids between 0–6, 6–24 and 24–48 h). The study was conducted at the Clinical Research and Trials Unit at the University of East Anglia according to the principles expressed in the Declaration of Helsinki and was approved by the Cambridgeshire 3 Research Ethics Committee (REC ref: 10/H0306/42) and registered at clinicaltrials.gov as NCT01106729.
(§2) Serum, urine and faecal samples were extracted by SPE and analysed by HPLC-ESI-MS/MS as recently described ([Czank et al., 2013]). The extraction efficiency was established as 87 ± 11% (coefficient of variation, CV; 6.8 ± 0.7%) for serum, 88 ± 18% (CV, 7.9 ± 0.8%) for urine and 81 ± 21% (CV, 14.1 ± 1.2%) for faeces (n = 3 replicates for each analyte). Sample extracts (5 μL) were injected onto a Kinetex PFP column (Phenomonex) and separated using an Agilent 1200 series HPLC with a QTrap 4000 linear ion trap mass spectrometer (ABSciex, Warrington, UK). […] Metabolite identification was performed by multiple reaction monitoring (MRM) optimized for the detection of pure standards with m/z of the parent and daughter fragments adjusted to +2,+3,+5 amu to allow identification of the ^13C-labelled metabolites derived from the B-ring, A-ring or the parent structure respectively. Metabolites were confirmed on the basis of retention time (using authentic and synthesized standards where possible) and three or more ion transitions. The HPLC-ESI-MS/MS method was validated for linearity and precision across all metabolites. Six point standard curves ranging from 1.25 to 20 μM were constructed from analytical standards and injected six times. The precision was established as 1.4–11.0% and linearity of the standard curves was established as r^2 = 0.991–1.000 (CV, 0.2%) across the identified metabolites.
(§3) Pharmacokinetic modelling of metabolites in the serum was performed with the PKSolver ‘add-on’ for Excel 2010 (Microsoft, […], USA) ([Zhang et al., 2010]) using non-compartmental analysis with the AUC calculated using the trapezoidal rule. Pharmacokinetic parameters were established for each individual analyte and presented as mean ± SEM. Urine samples collected during the first 6 h post-bolus were grouped together to the nearest hour time point (i.e. samples were not pooled but individual concentrations were averaged post-quantification) for graphical representation and to calculate total cumulative recovery. The concentration of metabolites was converted to amount recovered from urine by accounting for the molecular weight of the individual ^13C-labelled metabolites and the volume of the individual participants void and averaged across participants. Recovery of metabolites in the faeces was established from the molecular weight of the ^13C-labelled metabolite and the weight of the individual participants void adjusting for faecal water content as previously described ([Czank et al., 2013]). Urine and faecal recovery amounts are presented as mean ± SEM (n = 8), unless otherwise stated.

[2] = Urinary elimination/recovery after 500 mg oral bolus of 13C5-C3G; type: in vivo, humans; conditions: urine, single 500 mg oral 13C5-C3G; for Tmax: male, human, po, 500 mg, urine collection interval, read-out: Time at maximum concentration; for Total recovery: 0-48 h; for Total recovery / Maximum concentration: mean ± SEM
Description: as §1, §2, §3

[3] = Faecal recovery after 500 mg oral bolus of 13C5-C3G; type: in vivo, humans; conditions: faeces, 500 mg oral 13C5-C3G; for Recovery 6–24 h / Recovery 24–48 h: mean ± SEM
Description: The study was conducted at the Clinical Research and Trials Unit at the University of East Anglia according to the principles expressed in the Declaration of Helsinki and was approved by the Cambridgeshire 3 Research Ethics Committee (REC ref: 10/H0306/42) and registered at clinicaltrials.gov as NCT01106729.
Sample extracts (5 μL) were injected onto a Kinetex PFP column (Phenomonex) and separated using an Agilent 1200 series HPLC with a QTrap 4000 linear ion trap mass spectrometer (ABSciex, Warrington, UK). […] Metabolite identification was performed by multiple reaction monitoring (MRM) optimized for the detection of pure standards with m/z of the parent and daughter fragments adjusted to +2,+3,+5 amu to allow identification of the ^13C-labelled metabolites derived from the B-ring, A-ring or the parent structure respectively. […] The HPLC-ESI-MS/MS method was validated for linearity and precision across all metabolites.
Pharmacokinetic parameters were established for each individual analyte and presented as mean ± SEM. Urine samples collected during the first 6 h post-bolus were grouped together to the nearest hour time point (i.e. samples were not pooled but individual concentrations were averaged post-quantification) for graphical representation and to calculate total cumulative recovery. The concentration of metabolites was converted to amount recovered from urine by accounting for the molecular weight of the individual ^13C-labelled metabolites and the volume of the individual participants void and averaged across participants. […] Urine and faecal recovery amounts are presented as mean ± SEM (n = 8), unless otherwise stated.

[4] = set-up: method as in Czank et al., 2013; conditions: ref Czank et al., 2013, cited from earlier work
[5] = tested on: vascular cell adhesion molecule-1 (VCAM-1); set-up: method as in Wang et al., 2010; conditions: TNF-α-induced mouse aortic endothelial cells; ref Wang et al., 2010; cited from earlier work
plasma VCAM-1 = tested on: plasma VCAM-1; set-up: method as in Wang et al., 2010; conditions: mice fed PCA; ref Wang et al., 2010; cited from earlier work
[6] = tested on: LPS-induced RAW 264.7 cells; set-up: method as in Min et al., 2010; conditions: ref Min et al., 2010; cited from earlier work
plasma IL-6 = tested on: plasma IL-6; set-up: method as in Kim et al., 2010; conditions: vanillic acid fed mice; ref Kim et al., 2010; cited from earlier work
[7] = male, human, serum, po, 500 mg, serum elimination half-life, single 500 mg oral 13C5-C3G, mean ± SEM
[8] = male, human, serum, po, 500 mg, serum, single 500 mg oral 13C5-C3G, mean ± SEM, read-out: tmax
[9] = male, human, serum, po, 500 mg, single 500 mg oral 13C5-C3G
[10] = male, human, serum, single 500 mg oral 13C5-C3G, mean ± SEM
[11] = serum, single 500 mg oral 13C5-C3G
[12] = serum, single 500 mg oral 13C5-C3G, mean ± SEM

| half-life [1, 7] | Tmax [1, 8] | Cmax [1, 9] | AUC(0-t) [1, 10] | Tmax [2] | Total recovery [2] | Maximum concentration [2] | Recovery 6–24 h [3] | Recovery 24–48 h [3] | Cmax [1, 11] | Tmax [1, 12] | AUC0-48 [1, 12] | SMILES | other results |
| --- | --- | --- | --- | --- | --- | --- | --- | --- | --- | --- | --- | --- | --- |
| 0.4 h | 1.8 ± 0.2 h | 141 ± 70 nM | 0.279 ± 0.17 µM·h | 1 to 2 h | 120.0 ± 54.1 µg | 334 ± 145 nM | 70.0 ^b μg | 19.6 ^b μg |  |  |  | OCC1OC(Oc2cc3c(O)cc(O)cc3[o+]c2-c2ccc(O)c(O)c2)C(O)C(O)C1O (stereo not drawn) [Cyanidin-3-glucoside, 6,8,10,3′,5′-^13C5-cyanidin-3-glucoside] | share of the total metabolites found in the circulation ([1]; serum, 500 mg oral 13C5-C3G): 2%; relative bioavailability ([4]; based on recovery of the 13C-label in urine and breath): 12.4 ± 1.4%; recovered 13C-label in faeces [4]: 32 ± 6%; recovery of the initial dose of 13C within the urine sample [4]: 12% |
|  |  |  |  |  | 100.3 ± 30.2 µg | 233 ± 65 nM | 16.1 ± 17.5 µg | 20.4 ± 16.2 ^i μg | 68 ± 61 nM | 3.8 ± 0.8 h | 0.618 ± 0.489 µM·h | O=C(O)c1ccc(OC2OC(C(=O)O)C(O)C(O)C2O)c(O)c1 (stereo not drawn) [PCA-4-glucuronide] | t1/2 ([1]; serum elimination half-life, single 500 mg oral 13C5-C3G, mean ± SEM): 19.4 ± 3.1 h |
|  | 2.8 ± 1.1 h | 582 ± 536 nM | 7.88 ± 7.77 µM·h | 6 to 24 h | 66.7 ± 21.3 µg | 170 ± 42 nM | 2.1 ± 1.3 ^e μg | 111.3 ± 78.7 ^f μg |  |  |  | O=Cc1c(O)cc(O)cc1O [Phloroglucinaldehyde] |  |
|  |  |  |  |  | 618.4 ± 109.7 µg | 762 ± 124 nM | 3.3 ^b μg | 9.5 ± 7.9 ^g μg | 24 ± 4 nM | 4.8 ± 0.4 h | 0.074 ± 0.011 µM·h | COc1cc(C(=O)O)ccc1OC1OC(C(=O)O)C(O)C(O)C1O (stereo not drawn) [VA-4-glucuronide] | Recovery 0–6 h ([3]; 0–6 h (only 2 participants provided voids)): 3.6 ^b μg |
| 6.4 h | 12.5 ± 11.5 h | 1840 ± 838 nM |  | 1 to 2 h | 960.4 ± 350.0 µg | 3412 ± 312 nM | 54.7 ± 1.6 ^h μg | 49.3 ± 21.4 ^g μg |  |  |  | COc1cc(C(=O)O)ccc1O [Vanillic acid (VA), Vanillic acid] | plasma IL-6 (plasma IL-6): reductions |

| SMILES | half-life [1, 7] | Tmax [1, 8] | Cmax [1, 9] | AUC(0-t) [1, 10] | Tmax [2] | Total recovery [2] | Maximum concentration [2] | Recovery 6–24 h [3] | Recovery 24–48 h [3] | Cmax [1, 11] | Tmax [1, 12] | AUC0-48 [1, 12] | other results |
| --- | --- | --- | --- | --- | --- | --- | --- | --- | --- | --- | --- | --- | --- |
| O=C(O)c1ccc(O)c(O)c1 [Protocatechuic acid (PCA), Protocatechuic acid] | 9.9 ± 3.4 h | 3.3 ± 0.7 h | 147 nM | 1.38 ± 0.76 µM·h | 1 to 2 h | 71.6 ± 20.9 µg | 337 ± 117 nM | 360.9 ± 278.1 ^c μg | 221.8 ± 134.9 ^d μg | 146 ± 74 nM |  |  | Recovery 6–24 h ([3]; listed as PCA): 360.9 µg; VCAM-1 protein and mRNA [5]: reduce; plasma VCAM-1 levels (plasma VCAM-1): reduced; production of TNF-α, IL-1β, NO, PGE2 and gene expression of NOS and COX-2 [6]: suppress |
